Data reported in article PMC8124549, “Antidepressants Differentially Regulate Intracellular Signaling from α1-Adrenergic Receptor Subtypes In Vitro” (International Journal of Molecular Sciences, 2021).
pIC50: −log10 of the molar value. Where two headings read alike, the source gives them in different places.

Columns and labels:
[1] = target: T1, α1B-AR (Homo sapiens, UniProt P35368); assay: IP-One HTRF inositol phosphate accumulation, PC12 cells; assay type: cell-based
T1 construct: gene ADRA1B; human receptor from pcDNA3.1+ plasmid, stably expressed in rat PC12 cells
T1 sequence (P35368 1-520): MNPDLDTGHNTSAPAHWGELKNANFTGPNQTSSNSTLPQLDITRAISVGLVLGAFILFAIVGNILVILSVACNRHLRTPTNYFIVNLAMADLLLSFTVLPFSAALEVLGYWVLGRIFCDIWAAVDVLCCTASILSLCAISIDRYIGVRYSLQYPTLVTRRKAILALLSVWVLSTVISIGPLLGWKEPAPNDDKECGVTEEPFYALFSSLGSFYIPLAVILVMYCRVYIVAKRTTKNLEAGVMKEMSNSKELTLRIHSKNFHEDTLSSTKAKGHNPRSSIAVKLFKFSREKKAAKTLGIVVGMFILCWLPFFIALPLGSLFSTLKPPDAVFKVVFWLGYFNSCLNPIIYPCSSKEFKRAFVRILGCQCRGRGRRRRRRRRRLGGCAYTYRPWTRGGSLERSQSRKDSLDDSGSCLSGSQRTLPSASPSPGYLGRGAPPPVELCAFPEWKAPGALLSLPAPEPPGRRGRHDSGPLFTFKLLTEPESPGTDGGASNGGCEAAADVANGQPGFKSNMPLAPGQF

[2] = target: T2, α1A-AR (Homo sapiens, UniProt P35348); assay: as above; assay type: cell-based
T2 construct: gene ADRA1A; human receptor from pcDNA3.1+ plasmid, stably expressed in rat PC12 cells
T2 sequence (P35348 1-466): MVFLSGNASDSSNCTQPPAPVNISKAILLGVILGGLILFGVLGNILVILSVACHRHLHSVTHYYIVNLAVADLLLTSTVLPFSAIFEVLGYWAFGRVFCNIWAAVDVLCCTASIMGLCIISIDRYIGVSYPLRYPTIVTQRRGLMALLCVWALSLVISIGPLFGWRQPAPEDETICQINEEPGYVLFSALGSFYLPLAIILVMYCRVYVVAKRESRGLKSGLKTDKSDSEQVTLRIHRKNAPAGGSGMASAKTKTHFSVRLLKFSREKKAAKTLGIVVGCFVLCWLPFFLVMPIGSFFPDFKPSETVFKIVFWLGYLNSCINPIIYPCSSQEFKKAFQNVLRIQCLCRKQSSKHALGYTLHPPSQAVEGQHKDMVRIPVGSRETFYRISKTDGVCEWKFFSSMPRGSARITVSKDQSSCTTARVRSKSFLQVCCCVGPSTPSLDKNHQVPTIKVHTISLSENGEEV

SMILES	pIC50 [1]	IC50 ([2]; antagonism of noradrenaline at EC90, 37 °C, pH 7)	IC50 ([2]; read-out: α1A (converted))
CN(C)CCCC1(c2ccc(F)cc2)OCc2cc(C#N)ccc21 (stereo not drawn) [citalopram]	< 4.00		
CNCCCN1c2ccccc2CCc2ccccc21 [desipramine]	5.10		
CN(C)CCCN1c2ccccc2CCc2ccccc21 [imipramine]	5.09		0.468 µM

More lines, now with the values ahead:

pIC50 [1]	IC50 ([2]; antagonism of noradrenaline at EC90, 37 °C, pH 7)	IC50 ([2]; read-out: α1A (converted))	SMILES
< 4.00			CNCCC(Oc1ccc(C(F)(F)F)cc1)c1ccccc1 (stereo not drawn) [fluoxetine]
	1 × 10^−8.6 M		COc1cccc(OC)c1OCCNCC1COc2ccccc2O1 (stereo not drawn) [WB4101]
